Measurements published in US7851626B2, “4,4,5,5, tetrasubstituted imidazolines” (Hoffmann-La Roche Inc., priority 2005, dated 2010).

Target: interaction between p53 and MDM2 proteins (Homo sapiens, UniProt Q00987)
Experiment: HTRF assay of inhibition of the p53-MDM2 interaction (GST-MDM2 and biotinylated p53 peptide)
Assay type: binding
Details: recombinant GST-tagged MDM2, biotinylated p53 peptide, 37° C. for 1 h
Method: The ability of the compounds to inhibit the interaction between p53 and MDM2 proteins was measured by an HTRF (homogeneous time-resolved fluorescence) assay in which recombinant GST-tagged MDM2 binds to a peptide that resembles the MDM2-interacting region of p53 (Lane et al.). Binding of GST-MDM2 protein and p53-peptide (biotinylated on its N-terminal end) is registered by the FRET (fluorescence resonance energy transfer) between Europium (Eu)-labeled anti-GST antibody and streptavidin-conjugated Allophycocyanin (APC).
Test is performed in black flat-bottom 384-well plates (Costar) in a total volume of 40 uL containing: 90 nM biotinylate peptide, 160 ng/mL GST-MDM2, 20 nM streptavidin-APC (PerkinElmerWallac), 2 nM Eu-labeled anti-GST-antibody (PerkinElmerWallac), 0.2% bovine serum albumin (BSA), 1 mM dithiothreitol (DTT) and 20 mM Tris-borate saline (TBS) buffer as follows: Add 10 uL of GST-MDM2 (640 ng/mL working solution) in reaction buffer to each well. […] Incubate at 37° C. for 1 h. […] If not specified, the reagents were purchased from Sigma Chemical Co.

Sequence of interaction between p53 and MDM2 proteins (Q00987 whole entry): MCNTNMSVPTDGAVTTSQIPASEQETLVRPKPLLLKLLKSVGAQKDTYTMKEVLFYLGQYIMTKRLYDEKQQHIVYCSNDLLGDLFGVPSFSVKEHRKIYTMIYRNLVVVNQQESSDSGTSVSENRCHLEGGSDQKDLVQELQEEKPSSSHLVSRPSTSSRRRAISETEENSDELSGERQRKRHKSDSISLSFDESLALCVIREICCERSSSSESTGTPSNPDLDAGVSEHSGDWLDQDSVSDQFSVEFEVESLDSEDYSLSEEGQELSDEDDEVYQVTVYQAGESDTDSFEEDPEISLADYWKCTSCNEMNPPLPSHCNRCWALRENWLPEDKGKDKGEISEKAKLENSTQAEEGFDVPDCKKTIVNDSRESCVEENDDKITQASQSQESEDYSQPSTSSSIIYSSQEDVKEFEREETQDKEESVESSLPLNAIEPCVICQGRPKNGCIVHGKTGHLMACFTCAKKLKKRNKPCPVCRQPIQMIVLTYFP

IC50 [nM]	SMILES
48	COc1ccc(C2=N[C@@](C)(c3ccc(Cl)cc3)[C@@H](c3ccc(Cl)cc3)N2C(=O)N2CCN(C(C)=O)CC2)c(OC(C)C)c1 (racemic) [Example 190, rac-1-{4-[(4S*,5R*)-4,5-Bis-(4-chloro-phenyl)-2-(2-isopropoxy-4-methoxy-phenyl)-4-methyl-4,5-dihydro-imidazole-1-carbonyl]-piperazin-1-yl}-ethanone]
17	CCOc1cc(S(=O)(=O)N2CCCC2)ccc1C1=N[C@@](C)(c2ccc(Cl)cc2)[C@@](C)(c2ccc(Cl)cc2)N1C(=O)N1CCN(CC(N)=O)CC1 [Example 35, 2-(4-{(4S,5R)-4,5-Bis-(4-chloro-phenyl)-2-[2-ethoxy-4-(pyrrolidine-1-sulfonyl)-phenyl]-4,5-dimethyl-4,5-dihydro-imidazole-1-carbonyl}-piperazin-1-yl)-acetamide]
107	CCOc1cc(C(C)(C)C)ccc1C1=N[C@@](C)(c2ccc(Cl)cc2)[C@@H](c2ccc(Cl)cc2)N1C(=O)N1CCN(C(C)=O)CC1 [Example 177, 1-{4-[(4S,5R)-2-(4-tert-Butyl-2-ethoxy-phenyl)-4,5-bis-(4-chloro-phenyl)-4-methyl-4,5-dihydro-imidazole-1-carbonyl]-piperazin-1-yl}-ethanone]
